# “Also recorded” adds a separate entry of the source.
# Assays:
# melanoma = settings: in words; cited from earlier work
# [1] = in words; cited from earlier work
# melanocytes = assay: Light and electron microscopy of follicular melanocytes; format: in vivo, mice; settings: i.p.
# Procedure: In […] of 4 mice (1 control and 1 for each compound) were treated daily with the control or compound injected i.p. The compounds tested were 4-S-CAP, N-Ac-4-S-CAP and α-Me-4-S-CAP. Samples of skin and regrowing hair follicles were excised under brief general anaesthesia on day 10 (late anagen phase), fixed in Karnovsky's solution (2.5% glutaraldehyde and 2.5% paraformaldehyde in 011M cacodylate buffer), and refixed in 1% osmium tetroxide in cadodylate buffer. Tissues were stained en bloc with 1.5% uranyl acetate in o.1M veronal buffer for 30 min, dehydrated in graded ethanol solutions, embedded in epoxy resin, and sectioned with a Potter-Blum ultramicrotome MT II. Sections 1.0 μm thick were stained with methylene blue for light microscopy, thin sections were stained with led citrate for electron microscopy.
# black hair follicles = assay: Depigmentation of new hair (eumelanin/PTCA content); format: in vivo, C57BL/6J black mice
# Procedure: Female progeny were used in this testing when approximately 8 weeks old and weighing 17 grams.
# Thirty mice were randomized into 6 groups of 5 (1 control and 1 for each compound). Starting on day 1, daily for 14 days the agent was injected i.p. or was infiltrated s.c. in an area where hair follicles had been plucked; the dose was 300 mg/kg body weight.
# In the same 30 mice, hair follicles were harvested on day 22 (early telogen phase) and their eumelanin content analyzed. […] Briefly, a 10-mg hair sample is homogenized in water at a concentration of 10 mg/ml; the 200-μl homogenate is transferred to a screw-capped test tube, mixed with 1M H2 SO4 (800 μL) and oxidized with 3% KMnO4. The product, pyrrole-2,3,5-tricarboxylic acid (PTCA), is analyzed by HPLC with a UVL detector; samples are measured in duplicate. The eumelanin content is expressed as PTCA (ng/mg) against the PCTA content of BALB/c albino mice as control (≤10 ng/mg, the background value with our method, in which 1 ng corresponds roughly to a eumelanin content of 50 ng), and the degree of depigmentation is expressed as a percentage: (PTCA content of control sample minus PTCA content of experimental sample)/(PCTA content of control sample)×100.
# [2] = tested on: plasma monoamine oxidase (MAO); settings: in words, prior knowledge; cited from earlier work
# [3] = s.c., 300 mg/kg daily for 14 days, hair day 22
smiles,measurement,setting,value
"NCCSc1ccc(O)cc1 [4-S-CAP, 4-S-cysteaminylphenol, reference compound]",Inhibition of melanoma growth,melanoma,exhibited inhibition of melanoma growth
same,Prolonging lifespan of melanoma-bearing mice,melanoma,potent agent in prolonging the lifespan of melanoma-bearing mice
same,Hypotensive effect,[1],hypotensive
same,Electron microscopy of melanocytes/melanosomes,melanocytes; 10 days,contained immature melanosomes at stages II and III
same,Light microscopy of hair follicles,melanocytes; day 10,"the hair follicles contained functioning melanocytes and melanin pigments transferred into keratonocytes, although they were much sparser than in the controls"
same,Depigmentation,"black hair follicles; i.p., 300 mg/kg daily for 14 days, hair day 22",87%
same,Depigmentation of new growth of black hair follicles,black hair follicles; in words,i.p. administration induced more depigmentation than s.c.
same,Depigmentation,black hair follicles; [3],47%
same,PTCA Content,black hair follicles; [3],458.3 ± 107.6 ng/mg
same,Substrate for plasma MAO (converted into aldehyde form),[2],"substrate for monoamineoxidase (MAO); also recorded: substrate not only for tyrosinase, but also for plasma monoamineoxidase (MAO)"

# Reference: patent US5395611A, “Phenolic amine depigmenting and antimelanoma agents” (The Governors of the University of Alberta, priority 1992, dated 1995)
